According to ChEMBL document CHEMBL4393697, “Lipophilic efficient phenylthiazoles with potent undecaprenyl pyrophosphatase inhibitory activity” (Eur J Med Chem, 2019):
Converted amounts (≈) assume the structure as drawn. The source made the active and inactive calls. The rule behind the calls is not given here.

How the values were obtained:
Enterococcus faecium = assay: Ratio of MBC to MIC for vancomycin resistant Enterococcus faecium ATCC 700221 by broth microdilution method; format: functional
Listeria monocytogenes [1] = assay: Ratio of MBC to MIC for Listeria monocytogenes ATCC 19111 by broth microdilution assay; format: functional
Streptococcus pneumoniae [2] = assay: Antibacterial activity against Cephalosporin resistant Streptococcus pneumoniae ATCC 51916 assessed as reduction in bacterial cell growth incubated for 18 to 20 hrs by broth microdilution method; format: functional
Staphylococcus aureus [3] = assay: Antibacterial activity against vancomycin resistant Staphylococcus aureus VRS11a assessed as reduction in bacterial cell growth incubated for 18 to 20 hrs by broth microdilution method; format: functional
Staphylococcus aureus [4] = assay: Ratio of MBC to MIC for Staphylococcus aureus NRS107 by broth microdilution assay; format: functional
J774 [5] = assay: Cytotoxicity against mouse J774 assessed as reduction in cell viability at 16 ug/ml incubated for 24 hrs by MTS assay; format: cell-based; conditions: j774, 24 h
Streptococcus pneumoniae [6] = assay: Ratio of MBC to MIC for Cephalosporin resistant Streptococcus pneumoniae ATCC 51916 by broth microdilution method; format: functional
Streptococcus pneumoniae [7] = assay: Ratio of MBC to MIC for Methicillin resistant Streptococcus pneumoniae ATCC 700677 by broth microdilution method; format: functional
Escherichia coli [8] = assay: Antibacterial activity against Escherichia coli JW55031 harboring deltatolC mutant assessed as reduction in bacterial cell growth incubated for 18 to 20 hrs by broth microdilution method; format: functional
Listeria monocytogenes [9] = assay: Antibacterial activity against Listeria monocytogenes ATCC 19111 assessed as reduction in bacterial cell growth incubated for 18 to 20 hrs by broth microdilution method; format: functional
Escherichia coli [10] = assay: Antibacterial activity against Escherichia coli BW25113 assessed as reduction in bacterial cell growth incubated for 18 to 20 hrs by broth microdilution method; format: functional
Enterococcus faecalis = assay: Ratio of MBC to MIC for vancomycin resistant Enterococcus faecalis ATCC 51299 by broth microdilution method; format: functional
Staphylococcus aureus [11] = assay: Ratio of MBC to MIC for Staphylococcus aureus ATCC 6538 by broth microdilution assay; format: functional
[12] = test system: Staphylococcus epidermidis; assay: Antibacterial activity against methicillin resistant Staphylococcus epidermidis NRS101 assessed as reduction in bacterial cell growth incubated for 18 to 20 hrs by broth microdilution method; format: functional
Staphylococcus aureus [13] = assay: Antibacterial activity against methicillin-resistant Staphylococcus aureus USA400 assessed as reduction in CFU at 4 x MIC preincubated for 6 hrs in Tryptic soy broth followed by incubation for 18 to 20 hrs on TSA plate by time-kill assay; format: functional, organism-based
Staphylococcus aureus [14] = assay: Antibacterial activity against methicillin-resistant Staphylococcus aureus USA400 treated over 14 passages by broth microdilution assay; format: functional, organism-based
Staphylococcus aureus [15] = assay: Antibacterial activity against methicillin-resistant Staphylococcus aureus USA400 assessed as reduction in CFU at 4 x MIC preincubated for 24 hrs in Tryptic soy broth followed by incubation for 18 to 20 hrs on TSA plate by time-kill assay; format: functional, organism-based
Staphylococcus aureus [16] = assay: Resistance index, ratio of MIC for antibacterial activity against methicillin-resistant Staphylococcus aureus USA400 treated repeatedly over 6 passages to MIC for antibacterial activity against methicillin-resistant Staphylococcus aureus USA400 treated for 18 to 20 hrs by broth microdilution assay; format: functional
Staphylococcus aureus [17] = assay: Antibacterial activity against methicillin-resistant Staphylococcus aureus USA400 assessed as reduction in CFU at 4 x MIC preincubated for 12 hrs in Tryptic soy broth followed by incubation for 18 to 20 hrs on TSA plate by time-kill assay; format: functional
J774 [18] = assay: Cytotoxicity against mouse J774 cells reduction in cell viability up to 32 ug/ml incubated for 24 hrs by MTS assay; format: cell-based; conditions: j774, 24 h

Structure (SMILES)	Ratio (Enterococcus faecium)	Ratio (Listeria monocytogenes [1])	MIC (Streptococcus pneumoniae [2])	MIC (Staphylococcus aureus [3])	Ratio (Staphylococcus aureus [4])	Activity (J774 [5])	Ratio (Streptococcus pneumoniae [6])	Ratio (Streptococcus pneumoniae [7])	MIC (Escherichia coli [8])	MIC (Listeria monocytogenes [9])	MIC (Escherichia coli [10])	Ratio (Enterococcus faecalis)	Ratio (Staphylococcus aureus [11])	MIC [12]	inhibition (Staphylococcus aureus [13])	Activity (Staphylococcus aureus [14])	inhibition (Staphylococcus aureus [15])	Ratio (Staphylococcus aureus [16])	Activity (Staphylococcus aureus [17])	Activity (J774 [18])
C/C(=N\NC(=N)N)c1sc(-c2ccc(C#CC(C)(C)O)cc2)nc1C	2	2	4 µg/mL (≈ 11.3 µM)	1 µg/mL (≈ 2.81 µM)	2	Toxic	2	2	16 µg/mL (≈ 45 µM)	4 µg/mL (≈ 11.3 µM)	> 64 µg/mL	2	2	4 µg/mL (≈ 11.3 µM)	–	–	–	–	–	–
C/C(=N\NC(=N)N)c1sc(-c2ccc(C#CC3(O)CCCCC3)cc2)nc1C	2	2	8 µg/mL (≈ 20.2 µM)	1 µg/mL (≈ 2.53 µM)	2	Non-Toxic	2	2	32 µg/mL (≈ 80.9 µM)	4 µg/mL (≈ 10.1 µM)	> 64 µg/mL	2	2	4 µg/mL (≈ 10.1 µM)	Active	Active	–	–	–	–
C/C(=N\NC(=N)N)c1sc(-c2ccc(C#Cc3ccc(C)s3)cc2)nc1C	–	–	8 µg/mL (≈ 20.3 µM)	4 µg/mL (≈ 10.2 µM)	–	Non-Toxic	–	–	32 µg/mL (≈ 81.3 µM)	8 µg/mL (≈ 20.3 µM)	64 µg/mL (≈ 163 µM)	–	–	4 µg/mL (≈ 10.2 µM)	–	–	Active	1	3 log10CFU	–
C/C(=N\NC(=N)N)c1sc(-c2ccc(C#Cc3ccc(N)cc3)cc2)nc1C	–	–	32 µg/mL (≈ 82.4 µM)	16 µg/mL (≈ 41.2 µM)	–	Non-Toxic	–	–	16 µg/mL (≈ 41.2 µM)	32 µg/mL (≈ 82.4 µM)	> 64 µg/mL	–	–	2 µg/mL (≈ 5.15 µM)	–	–	Active	1	3 log10CFU	Non-Toxic
